The values that follow come from patent US7811760B2, “Vector and method for detecting the change in transcription amount” (priority 2006, dated 2010).

This assay has as its target T1, aryl hydrocarbon receptor (Rattus norvegicus, UniProt P41738, Q794H).
T1 construct: The SD-line rat AhR gene-coding region was amplified from the reverse-transcribed sample by means of PCR; V5-His (C-terminal tag of vector pcDNA4/V5-His B); expressed in transfected cells; host or cells: mouse neuroblastoma Neuro2a, transient transfection with LIPOFECTAMINE 2000
T1 sequence (P41738 10-853 Q794H): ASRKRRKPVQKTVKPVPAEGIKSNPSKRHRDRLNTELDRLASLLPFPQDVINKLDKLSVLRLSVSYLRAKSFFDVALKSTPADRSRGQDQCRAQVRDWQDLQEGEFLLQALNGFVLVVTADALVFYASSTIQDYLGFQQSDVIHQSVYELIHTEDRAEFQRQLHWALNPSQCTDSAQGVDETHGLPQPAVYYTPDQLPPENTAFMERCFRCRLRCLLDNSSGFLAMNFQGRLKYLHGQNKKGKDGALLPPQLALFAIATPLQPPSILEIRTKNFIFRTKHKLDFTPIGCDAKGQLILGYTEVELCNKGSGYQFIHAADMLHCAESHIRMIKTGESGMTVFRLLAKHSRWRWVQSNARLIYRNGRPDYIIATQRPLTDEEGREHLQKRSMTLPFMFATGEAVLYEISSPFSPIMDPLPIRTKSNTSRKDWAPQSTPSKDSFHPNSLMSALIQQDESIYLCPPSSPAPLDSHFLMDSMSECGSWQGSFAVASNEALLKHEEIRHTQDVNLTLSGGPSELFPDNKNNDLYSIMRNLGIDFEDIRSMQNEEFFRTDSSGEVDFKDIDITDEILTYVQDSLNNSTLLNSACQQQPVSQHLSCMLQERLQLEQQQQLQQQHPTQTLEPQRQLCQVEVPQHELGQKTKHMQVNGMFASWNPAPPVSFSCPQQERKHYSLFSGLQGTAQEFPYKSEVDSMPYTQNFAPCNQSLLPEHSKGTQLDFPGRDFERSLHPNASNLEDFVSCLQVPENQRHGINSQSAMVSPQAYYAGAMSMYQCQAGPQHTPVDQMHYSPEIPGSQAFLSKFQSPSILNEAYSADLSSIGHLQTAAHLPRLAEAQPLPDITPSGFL
The assay can be described thus: Reporter gene (luciferase) assay in Neuro2a cells carrying PGV-THp25 (2.5 kbp TH transcriptional regulatory region) and pcDNA4-rAhR. As to conditions: PGV-pTH25-introduced Neuro2a; for expression amount of the reporter gene (increase versus unexposed): 30 hours. In kind it is cell-based, SD-line rat. The text has this:
In this Example, the PGV-THp25 prepared in Example 2 was used. Neuro2a was used as the cell.
Two kinds of vectors, pcDNA4-rAhR (Example 1) and pcDNA4/V5-His/lacZ (Invitrogen), were introduced into Neuro2a, together with PGV-THp25. pcDNA4-rAhR was introduced for constitutive expression of the SD-line rat AhR gene (SEQ ID No: 10) in the cell, and pcDNA4/V5-His/lacZ was introduced for normalization of the vector transfection efficiency.
The vectors were introduced into the cell by using LIPOFECTAMINE 2000 (Invitrogen). The cell was cultured on a 24-well plate, and the operation was performed according to the manual of Invitrogen. A total of 0.8 μg of vectors (0.4 μg of PGV-THp25, 0.2 μg of pcDNA4-rAhR, and 0.2 μg of pcDNA4/V5-His/lacZ) suspended in 50 μl of OPTI-MEM medium and 2 μl of LIPOFECTAMINE 2000 suspended in 50 μl of OPTI-MEM medium were mixed, and incubated at room temperature for 20 minutes to form nucleic acid/LIPOFECTAMINE 2000 complex. The obtained suspension containing the complex was added to Neuro2a cell culture, which has been previously cultured overnight in 500 μl of DF1:1 medium (containing 10% fetal calf serum) (0.8×10^5 cells were seeded on previous day), to allow incorporation of the vectors into the cell. The cell was cultured additionally for 24 hours after the transfection, for the purpose of improvement in vector incorporation efficiency and expression of the proteins derived from the introduced vectors.
As the test substance, a solution of dioxin (2,3,7,8-tetrachlorodibenzo-p-dioxine, TCDD) in dimethylsulfoxide (manufactured by Kanto Kagaku Co. Inc.) was used. After the transfection and the additional incubation for 24 hours, the medium was replaced with a fresh medium containing TCDD (at 0, 0.01, 1, or 100 nM), and the cell was cultured additionally for 30 hours. After 30 hours, the medium was removed from the 24-well plate, and the cell was washed with phosphate buffer twice. 100 μl of a protein extraction solution (manufactured by TOYO B-NET) was added to each well, and the cell suspension was stirred gently at room temperature for 15 minutes and then frozen at −80° C. The frozen solution was thawed at room temperature, and the resulting solution was recovered in a tube and diluted ten times with a protein extraction reagent containing 1 mg/ml bovine serum albumin. Luciferase and β-galactosidase activities in the diluted solution were measured, and the expression amount of the reporter gene was calculated as a relative luminescence intensity per 1 ng of β-galactosidase per second (RLU/sec/ng β-galactosidase).
In general terms: Reporter assays use an easily measured gene product as a stand-in for the process of interest.

As to `Clc1cc2c(cc1Cl)Oc1cc(Cl)c(Cl)cc1O2` [TCDD, 2,3,7,8-tetrachlorodibenzo-p-dioxine], the “expression amount of the reporter gene (increase versus unexposed)” value is “approximately 1.2 times” (0.01 nM TCDD), “approximately 1.6 times” (1 nM TCDD) and “approximately 1.8 times” (100 nM TCDD). For the same molecule, the “expression amount of the reporter gene, dose dependence” value (0.01 to 100 nM TCDD) is reported as “increased dose-dependently”.
